For test [1], the system named is Nrf2 transcriptional activity (pARE-Luc reporter) in HepG2 cells. Description: In vitro Nrf2 transcriptional activity measurement by ARE-dependent reporter assay in HepG2 cell. The format is cell-based, human. Summed up:
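HepG2 cells transfected with pGL4.37 (pARE-Luc), replated onto compound and incubated 4 h at 37° C; luciferase read by Bright-Glo luminescence. Response normalized to 100% set by a reference compound at 3.75 μM; EC50 from dose-response curve.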

The subject of test [2] is Nqo1 (NAD(P)H quinone dehydrogenase 1) mRNA, Nrf2 downstream molecule. Description: In vivo Nrf2 transcriptional activity measurement (Nqo1 mRNA in organs by qPCR). To be noted: Mus musculus, C57BL/6J mice, 7 to 8 hours. As for the experimental part:
Test Example 2: In Vivo Nrf2 Transcriptional Activity Measurement
A test compound (solvent: 10 vol % dimethyl sulfoxide/50 mM glycine/32 mM sodium hydroxide/physiological saline) was administered to C57BL/6J mice (7-8 weeks old), which were euthanized by whole blood collection under isoflurane anesthesia 7 to 8 hours later, followed by the collection of various organs. mRNA was purified from the collected organs, and the mRNA expression level of Mapk1 as an internal control and the mRNA expression level of Nqo1 (NAD(P)H quinone dehydrogenase 1) as a typical Nrf2 downstream molecule were each measured by qPCR. The Nqo1 mRNA expression level was quantified by comparative CT, and an expression level ratio to a non-administration group was calculated. The administration of the test compound elevated the Nqo1 mRNA expression level in the various organs, confirming that the test compound also has a Nrf2-activating effect in vivo.
(Real-time PCR tracks product formation cycle by cycle.)

Where [3] appears, read: Homo sapiens, HepG2 cells transfected with pARE-Luc, 4 hours at 37° C., luciferase activity of Example 1-54 or Example 17-23 at 3.75 μM defined as 100%.
Where [4] appears, read: ip, Intraperitoneal, kidney, read-out: Nqo1 mRNA expression level ratio to non-administration group, Kidney.
Where [5] appears, read: ip, Intraperitoneal, liver, read-out: Nqo1 mRNA expression level ratio to non-administration group, Liver.
[6] abbreviates: ip, Intraperitoneal, lung, read-out: Nqo1 mRNA expression level ratio to non-administration group, Lung.
Setting [7] is: Oral, kidney, read-out: Nqo1 mRNA expression level ratio to non-administration group, Kidney.
Setting [8] is: Oral, liver, read-out: Nqo1 mRNA expression level ratio to non-administration group, Liver.
Setting [9] is: Oral, lung, read-out: Nqo1 mRNA expression level ratio to non-administration group, Lung.

Each structure is given as a SMILES string. Read-outs that look alike come from different tables or passages of the source.

Take `CO[C@@H]1CN(c2cc(Cl)c(C(=O)N3COc4c(cccc4-c4cc(N5C6CCC5COC6)c(C(=O)O)cc4F)C3)c(Cl)c2)[C@@H]1C` [Compound 1-4, 4-[3-[2,6-Dichloro-4-[(2R,3R)-3-methoxy-2-methylazetidin-1-yl]benzoyl]-2,4-dihydro-1,3-benzoxazin-8-yl]-5-fluoro-2-(3-oxa-8-azabicyclo[3.2.1]octan-8-yl)benzoic acid]: the EC50 – broadly, the concentration needed to bring the measured effect to its halfway point – in test [1] (setting [3]) is 1.6 nM. The results for the fold induction at 10 mg/kg in test [2] (setting [4]), in test [2] (setting [5]) and in test [2] (setting [6]) were 4.4, 6.5 and 13, respectively. In addition, the fold induction at 30 mg/kg came out at 5 in test [2] (setting [7]), 8.1 in test [2] (setting [8]) and 20 in test [2] (setting [9]).
The compound `O=C(O)c1cc(F)c(-c2cccc3c2OCN(C(=O)c2c(Cl)cc(N4CC5(CCOCC5)C4)cc2Cl)C3)cc1N1C2CCC1COC2` [Compound 1-18, 4-[3-[2,6-Dichloro-4-(7-oxa-2-azaspiro[3.5]nonan-2-yl)benzoyl]-2,4-dihydro-1,3-benzoxazin-8-yl]-5-fluoro-2-(3-oxa-8-azabicyclo[3.2.1]octan-8-yl)benzoic acid] had an EC50 in test [1] (setting [3]) of 4.3 nM. For the same compound, the fold induction at 10 mg/kg was found to be 2.5 in test [2] (setting [4]), 6 in test [2] (setting [5]) and 8.7 in test [2] (setting [6]).
With `O=C(O)c1cc(F)c(-c2cccc3c2OCN(C(=O)c2c(Cl)cc(N4CC5(CC(OC(F)F)C5)C4)cc2Cl)C3)cc1N1C2CCC1COC2` [Compound 1-21, 4-[3-[2,6-Dichloro-4-[6-(difluoromethoxy)-2-azaspiro[3.3]heptan-2-yl]benzoyl]-2,4-dihydro-1,3-benzoxazin-8-yl]-5-fluoro-2-(3-oxa-8-azabicyclo[3.2.1]octan-8-yl)benzoic acid], in test [1] (setting [3]), the EC50 was determined as 2.9 nM. Further, the figures for the fold induction at 10 mg/kg in test [2] (setting [4]), in test [2] (setting [5]) and in test [2] (setting [6]) were 3.7, 4.7 and 10, respectively.
`C[C@@H]1CN(C)CCN1c1cc(Cl)c(C(=O)N2COc3c(cccc3-c3cc(N4C5CCC4COC5)c(C(=O)O)cc3F)C2)c(Cl)c1` [Compound 1-33, 4-[3-[2,6-Dichloro-4-[(2R)-2,4-dimethylpiperazin-1-yl]benzoyl]-2,4-dihydro-1,3-benzoxazin-8-yl]-5-fluoro-2-(3-oxa-8-azabicyclo[3.2.1]octan-8-yl)benzoic acid]: a half-maximal effect in test [1] (HepG2 cells, pARE-Luc reporter, 4 hours, 100% = Example 1-54 or Example 17-23 at 3.75 μM (repeat print of Table 20-1)) (EC50) was put at 1.9 nM. The fold induction at 10 mg/kg was found to be 3.7 in test [2] (setting [4]), 5.5 in test [2] (setting [5]) and 13 in test [2] (setting [6]). In addition, the fold induction at 30 mg/kg worked out at 5.1 in test [2] (setting [7]), 5.2 in test [2] (setting [8]) and 18 in test [2] (setting [9]).
In turn, `COCCN1CCN(c2cc(Cl)c(C(=O)N3COc4c(cccc4-c4cc(N5CCOCC5)c(C(=O)O)cc4F)C3)c(Cl)c2)CC1` [Compound 1-54, 4-[3-[2,6-Dichloro-4-[4-(2-methoxyethyl)piperazin-1-yl]benzoyl]-2,4-dihydro-1,3-benzoxazin-8-yl]-5-fluoro-2-morpholin-4-ylbenzoic acid] yielded an EC50 in test [1] (setting [3]) of 1.5 nM. Moreover, the fold induction at 10 mg/kg came to 4.6 in test [2] (setting [4]), 6.7 in test [2] (setting [5]) and 18 in test [2] (setting [6]). Besides, the fold induction at 30 mg/kg was 4.9 in test [2] (setting [7]), 7.4 in test [2] (setting [8]) and 20 in test [2] (setting [9]).
Compound `COC1CC2(C1)CN(c1cc(Cl)c(C(=O)N3COc4c(cccc4-c4ccc(C(=O)O)c(N5C6CCC5COC6)c4)C3)c(Cl)c1)C2` [Compound 1-83, 4-[3-[2,6-Dichloro-4-(6-methoxy-2-azaspiro[3.3]heptan-2-yl)benzoyl]-2,4-dihydro-1,3-benzoxazin-8-yl]-2-(3-oxa-8-azabicyclo[3.2.1]octan-8-yl)benzoic acid] yielded an EC50 in test [1] (setting [3]) of 2.4 nM. The fold induction at 15 mg/kg is 4.7 in test [2] (setting [4]), 6.5 in test [2] (setting [5]) and 21 in test [2] (setting [6]).
Compound `COC1CC2(C1)CN(c1ccc(C(=O)N3COc4c(cccc4-c4cc(N5C6CCC5COC6)c(C(=O)O)cc4F)C3)c(Cl)c1)C2` [Compound 1-88, 4-[3-[2-Chloro-4-(6-methoxy-2-azaspiro[3.3]heptan-2-yl)benzoyl]-2,4-dihydro-1,3-benzoxazin-8-yl]-5-fluoro-2-(3-oxa-8-azabicyclo[3.2.1]octan-8-yl)benzoic acid] gave an EC50 in test [1] (setting [3]) of 2.1 nM. Also, the fold induction at 15 mg/kg in test [2] (setting [4]) worked out at 3; in test [2] (setting [5]), 4.3; in test [2] (setting [6]), 6.1; in test [2] (setting [7]), 3.4; in test [2] (setting [8]) it was 5.4; in test [2] (setting [9]), 8.9.
Consider `COc1ccc(-c2cc(Cl)c(C(=O)N3COc4c(cccc4-c4cc(N5C6CCC5COC6)c(C(=O)O)cc4F)C3)c(Cl)c2)cn1` [Compound 2-2, 4-[3-[2,6-Dichloro-4-(6-methoxypyridin-3-yl)benzoyl]-2,4-dihydro-1,3-benzoxazin-8-yl]-5-fluoro-2-(3-oxa-8-azabicyclo[3.2.1]octan-8-yl)benzoic acid], for which a half-maximal response in test [1] (setting [3]) (EC50) required 6.5 nM. For the same compound, the fold induction at 10 mg/kg in test [2] (setting [4]) is 5.3; in test [2] (setting [5]) it was 5.8; in test [2] (setting [6]), 17.
The matching figures for `CCN1CCN(c2cc(Cl)c(C(=O)N3COc4c(cccc4-c4cc(N5C6CCC5COC6)c(C(=O)O)cc4F)C3)c(Cl)c2)CC1` [Compound 4-8, 4-[3-[2,6-Dichloro-4-(4-ethylpiperazin-1-yl)benzoyl]-2,4-dihydro-1,3-benzoxazin-8-yl]-5-fluoro-2-(3-oxa-8-azabicyclo[3.2.1]octan-8-yl)benzoic acid]: 5.8 nM, 3.4, 6.7 and 6.2.
The matching figures for `COCCOc1cc(Cl)c(C(=O)N2COc3c(cccc3-c3cc(N4C5CCC4COC5)c(C(=O)O)cc3F)C2)c(Cl)c1` [Compound 4-37, 4-[3-[2,6-Dichloro-4-(2-methoxyethoxy)benzoyl]-2,4-dihydro-1,3-benzoxazin-8-yl]-5-fluoro-2-(3-oxa-8-azabicyclo[3.2.1]octan-8-yl)benzoic acid]: 6.3 nM, 4, 8 and 5.4.
In test [1] (setting [3]), `COC1(OC)CN(c2cc(Cl)c(C(=O)N3COc4c(cccc4-c4cc(N5C6CCC5COC6)c(C(=O)O)cc4F)C3)c(Cl)c2)C1` [Compound 5-1, 4-[3-[2,6-Dichloro-4-(3,3-dimethoxyazetidin-1-yl)benzoyl]-2,4-dihydro-1,3-benzoxazin-8-yl]-5-fluoro-2-(3-oxa-8-azabicyclo[3.2.1]octan-8-yl)benzoic acid] displayed an EC50 of 1.6 nM. The results for the fold induction at 10 mg/kg in test [2] (setting [4]), in test [2] (setting [5]) and in test [2] (setting [6]) were 4.4, 6.8 and 19, respectively. For the same compound, the fold induction at 30 mg/kg in test [2] (setting [7]) came to 5.1; in test [2] (setting [8]), 3.9; in test [2] (setting [9]), 17.
For `O=C(O)c1cc(F)c(-c2cccc3c2OCN(C(=O)c2c(Cl)cc(N4CC5(C4)OCCCO5)cc2Cl)C3)cc1N1C2CCC1COC2` [Compound 5-2, 4-[3-[2,6-Dichloro-4-(5,9-dioxa-2-azaspiro[3.5]nonan-2-yl)benzoyl]-2,4-dihydro-1,3-benzoxazin-8-yl]-5-fluoro-2-(3-oxa-8-azabicyclo[3.2.1]octan-8-yl)benzoic acid], the EC50 in test [1] (setting [3]) is 1.3 nM. Further, the fold induction at 10 mg/kg is 4.3 in test [2] (setting [4]), 6.9 in test [2] (setting [5]) and 20 in test [2] (setting [6]). For the same compound, the fold induction at 30 mg/kg in test [2] (setting [7]) turned out to be 4; in test [2] (setting [8]), 6.9; in test [2] (setting [9]) it was 20.

These data come from patent publication US20250171457A1, “NITROGEN-CONTAINING HETEROCYCLIC COMPOUND HAVING NRF2 ACTIVATION EFFECT” (CHUGAI SEIYAKU KABUSHIKI KAISHA, priority 2022, published 2025).
